From patent US8846653B2, “Delta-tocotrienol treatment and prevention of pancreatic cancer” (University of South Florida, priority 2006, dated 2014)

Key:
Type in all cases: cell-based, human
[1] = system: MiaPaCa-2 cells; assay: MTT assay of MiaPaCa2 cultures, single 50 μM dose; design: rel amt (relative value set to the control): unit not given here; conditions: MiaPaCa2, 50 μM; for MTT assay result, av-blank: average minus blank; for MTT assay result, av: average of 7 runs
Outline: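 MiaPaCa-2 cells given a single 50 μM dose of test agent (tocotrienols, tocopherols, tocopherol succinate, geranylgeraniol or succinic acid) or vehicle (ethanol-extracted olive oil). Viability read by MTT at 48 or 120 hours after treatment, alongside vehicle-only control culture.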

[2] = system: MiaPaCa-2 cells; assay: MTS assay of MiaPaCa2 cultures, single 50 μM dose; conditions: MiaPaCa2, 50 μM
Outline: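 MiaPaCa-2 pancreatic cancer cells were grown in complete DMEM with 10% fetal bovine serum, 1% penicillin-streptomycin and 1% L-glutamine, kept at 37° C. in a humidified 5% CO2 incubator. They received a single 50 μM dose of test agent or vehicle alongside an untreated control culture, and viability was assessed by MTS assay.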

[3] = system: SW1990 pancreatic cancer cells; assay: MTS assay of SW1990 cultures, single 50 μM dose; conditions: SW1990, 50 μM
Outline: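 SW1990 cells were grown in DMEM with 10% FBS at 37 °C, 5% CO2. They were given one 50 μM dose of a tocotrienol, tocopherol, tocopherol succinate, geranylgeraniol or succinic acid, in an olive-oil-extract vehicle. MTS viability was read at 24, 48 or 72 h and compared with vehicle-only cultures.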

Cc1c(C)c2c(c(C)c1OC(=O)CCC(=O)O)CC[C@@](C)(CCC[C@H](C)CCC[C@H](C)CCCC(C)C)O2 [TS, tocopherol succinate]
rel amt (relative value set to the control) ([1]; 48 hours): 48
MTT assay result, av-blank ([1]; 48 hours): 0.148
MTT assay result, av ([1]; 48 hours): 0.194
MTT assay result, run 1 ([1]; 48 hours): 0.215
MTT assay result, run 2 ([1]; 48 hours): 0.184
MTT assay result, run 3 ([1]; 48 hours): 0.2
MTT assay result, run 4 ([1]; 48 hours): 0.187
MTT assay result, run 5 ([1]; 48 hours): 0.194
MTT assay result, run 6 ([1]; 48 hours): 0.19
MTT assay result, run 7 ([1]; 48 hours): 0.185
rel amt (relative value set to the control) ([1]; 120 hours (5 days)): 43
MTT assay result, av-blank ([1]; 120 hours (5 days)): 0.773
MTT assay result, av ([1]; 120 hours (5 days)): 0.825
MTT assay result, run 1 ([1]; 120 hours (5 days)): 0.732
MTT assay result, run 2 ([1]; 120 hours (5 days)): 0.776
MTT assay result, run 3 ([1]; 120 hours (5 days)): 0.786
MTT assay result, run 4 ([1]; 120 hours (5 days)): 0.714
MTT assay result, run 5 ([1]; 120 hours (5 days)): 0.939
MTT assay result, run 6 ([1]; 120 hours (5 days)): 0.859
MTT assay result, run 7 ([1]; 120 hours (5 days)): 0.968
rel amt (relative value set to the control) ([2]; 24 hours): 96
MTS assay result, run 1 ([2]; 24 hours): 0.24
MTS assay result, run 2 ([2]; 24 hours): 0.211
MTS assay result, run 3 ([2]; 24 hours): 0.226
MTS assay result, run 4 ([2]; 24 hours): 0.172
MTS assay result, run 5 ([2]; 24 hours): 0.221
MTS assay result, run 6 ([2]; 24 hours): 0.201
MTS assay result, run 7 ([2]; 24 hours): 0.214
MTS assay result, run 8 ([2]; 24 hours): 0.228
MTS assay result, run 9 ([2]; 24 hours): 0.214
rel amt (relative value set to the control) ([2]; 48 hours): 76
MTS assay result, run 1 ([2]; 48 hours): 0.257
MTS assay result, run 2 ([2]; 48 hours): 0.254
MTS assay result, run 3 ([2]; 48 hours): 0.262
MTS assay result, run 4 ([2]; 48 hours): 0.237
MTS assay result, run 5 ([2]; 48 hours): 0.258
MTS assay result, run 6 ([2]; 48 hours): 0.275
MTS assay result, run 7 ([2]; 48 hours): 0.32
MTS assay result, run 8 ([2]; 48 hours): 0.337
MTS assay result, run 9 ([2]; 48 hours): 0.275
rel amt (relative value set to the control) ([2]; 72 hours): 207
MTS assay result, run 1 ([2]; 72 hours): 0.998
MTS assay result, run 2 ([2]; 72 hours): 0.962
MTS assay result, run 3 ([2]; 72 hours): 1.016
MTS assay result, run 4 ([2]; 72 hours): 0.887
MTS assay result, run 5 ([2]; 72 hours): 0.936
MTS assay result, run 6 ([2]; 72 hours): 0.897
MTS assay result, run 7 ([2]; 72 hours): 0.85
MTS assay result, run 8 ([2]; 72 hours): 0.801
MTS assay result, run 9 ([2]; 72 hours): 0.918
rel amnt (relative value set to the control) ([3]; 24 hours): 110
MTS assay result, run 1 ([3]; 24 hours): 0.155
MTS assay result, run 2 ([3]; 24 hours): 0.168
MTS assay result, run 3 ([3]; 24 hours): 0.164
MTS assay result, run 4 ([3]; 24 hours): 0.158
MTS assay result, run 5 ([3]; 24 hours): 0.155
MTS assay result, run 6 ([3]; 24 hours): 0.163
MTS assay result, run 7 ([3]; 24 hours): 0.165
MTS assay result, run 8 ([3]; 24 hours): 0.167
MTS assay result, run 9 ([3]; 24 hours): 0.162
rel amnt (relative value set to the control) ([3]; 48 hours): 104
MTS assay result, run 1 ([3]; 48 hours): 0.122
MTS assay result, run 2 ([3]; 48 hours): 0.166
MTS assay result, run 3 ([3]; 48 hours): 0.16
MTS assay result, run 4 ([3]; 48 hours): 0.135
MTS assay result, run 5 ([3]; 48 hours): 0.148
MTS assay result, run 6 ([3]; 48 hours): 0.174
MTS assay result, run 7 ([3]; 48 hours): 0.18
MTS assay result, run 8 ([3]; 48 hours): 0.173
MTS assay result, run 9 ([3]; 48 hours): 0.157
rel amnt (relative value set to the control) ([3]; 72 hours): 207
MTS assay result, run 1 ([3]; 72 hours): 0.998
MTS assay result, run 2 ([3]; 72 hours): 0.962
MTS assay result, run 3 ([3]; 72 hours): 1.02
MTS assay result, run 4 ([3]; 72 hours): 0.887
MTS assay result, run 5 ([3]; 72 hours): 0.936
MTS assay result, run 6 ([3]; 72 hours): 0.897
MTS assay result, run 7 ([3]; 72 hours): 0.85
MTS assay result, run 8 ([3]; 72 hours): 0.801
MTS assay result, run 9 ([3]; 72 hours): 0.918

alpha tocotrienol [T3 alpha]
rel amt (relative value set to the control) ([1]; 48 hours): 94
MTT assay result, av-blank ([1]; 48 hours): 0.292
MTT assay result, av ([1]; 48 hours): 0.338
MTT assay result, run 1 ([1]; 48 hours): 0.349
MTT assay result, run 2 ([1]; 48 hours): 0.341
MTT assay result, run 3 ([1]; 48 hours): 0.356
MTT assay result, run 4 ([1]; 48 hours): 0.329
MTT assay result, run 5 ([1]; 48 hours): 0.349
MTT assay result, run 6 ([1]; 48 hours): 0.316
MTT assay result, run 7 ([1]; 48 hours): 0.323
rel amt (relative value set to the control) ([1]; 120 hours (5 days)): 84
MTT assay result, av-blank ([1]; 120 hours (5 days)): 1.528
MTT assay result, av ([1]; 120 hours (5 days)): 1.580
MTT assay result, run 1 ([1]; 120 hours (5 days)): 1.497
MTT assay result, run 2 ([1]; 120 hours (5 days)): 1.573
MTT assay result, run 3 ([1]; 120 hours (5 days)): 1.569
MTT assay result, run 4 ([1]; 120 hours (5 days)): 1.55
MTT assay result, run 5 ([1]; 120 hours (5 days)): 1.811
MTT assay result, run 6 ([1]; 120 hours (5 days)): 1.589
MTT assay result, run 7 ([1]; 120 hours (5 days)): 1.47
rel amt (relative value set to the control) ([2]; 24 hours): 116
MTS assay result, run 1 ([2]; 24 hours): 0.274
MTS assay result, run 2 ([2]; 24 hours): 0.296
MTS assay result, run 3 ([2]; 24 hours): 0.293
MTS assay result, run 4 ([2]; 24 hours): 0.216
MTS assay result, run 5 ([2]; 24 hours): 0.245
MTS assay result, run 6 ([2]; 24 hours): 0.258
MTS assay result, run 7 ([2]; 24 hours): 0.243
MTS assay result, run 8 ([2]; 24 hours): 0.239
MTS assay result, run 9 ([2]; 24 hours): 0.258
rel amt (relative value set to the control) ([2]; 48 hours): 93
MTS assay result, run 1 ([2]; 48 hours): 0.336
MTS assay result, run 2 ([2]; 48 hours): 0.325
MTS assay result, run 3 ([2]; 48 hours): 0.343
MTS assay result, run 4 ([2]; 48 hours): 0.327
MTS assay result, run 5 ([2]; 48 hours): 0.39
MTS assay result, run 6 ([2]; 48 hours): 0.376
MTS assay result, run 7 ([2]; 48 hours): 0.322
MTS assay result, run 8 ([2]; 48 hours): 0.286
MTS assay result, run 9 ([2]; 48 hours): 0.338
rel amt (relative value set to the control) ([2]; 72 hours): 61
MTS assay result, run 1 ([2]; 72 hours): 0.279
MTS assay result, run 2 ([2]; 72 hours): 0.282
MTS assay result, run 3 ([2]; 72 hours): 0.294
MTS assay result, run 4 ([2]; 72 hours): 0.238
MTS assay result, run 5 ([2]; 72 hours): 0.302
MTS assay result, run 6 ([2]; 72 hours): 0.279
MTS assay result, run 7 ([2]; 72 hours): 0.254
MTS assay result, run 8 ([2]; 72 hours): 0.254
MTS assay result, run 9 ([2]; 72 hours): 0.273
rel amnt (relative value set to the control) ([3]; 24 hours): 121
MTS assay result, run 1 ([3]; 24 hours): 0.168
MTS assay result, run 2 ([3]; 24 hours): 0.183
MTS assay result, run 3 ([3]; 24 hours): 0.175
MTS assay result, run 4 ([3]; 24 hours): 0.148
MTS assay result, run 5 ([3]; 24 hours): 0.195
MTS assay result, run 6 ([3]; 24 hours): 0.176
MTS assay result, run 7 ([3]; 24 hours): 0.206
MTS assay result, run 8 ([3]; 24 hours): 0.172
MTS assay result, run 9 ([3]; 24 hours): 0.178
rel amnt (relative value set to the control) ([3]; 48 hours): 116
MTS assay result, run 1 ([3]; 48 hours): 0.168
MTS assay result, run 2 ([3]; 48 hours): 0.162
MTS assay result, run 3 ([3]; 48 hours): 0.16
MTS assay result, run 4 ([3]; 48 hours): 0.146
MTS assay result, run 5 ([3]; 48 hours): 0.175
MTS assay result, run 6 ([3]; 48 hours): 0.205
MTS assay result, run 7 ([3]; 48 hours): 0.2
MTS assay result, run 8 ([3]; 48 hours): 0.187
MTS assay result, run 9 ([3]; 48 hours): 0.175
rel amnt (relative value set to the control) ([3]; 72 hours): 61
MTS assay result, run 1 ([3]; 72 hours): 0.279
MTS assay result, run 2 ([3]; 72 hours): 0.282
MTS assay result, run 3 ([3]; 72 hours): 0.29
MTS assay result, run 4 ([3]; 72 hours): 0.238
MTS assay result, run 5 ([3]; 72 hours): 0.302
MTS assay result, run 6 ([3]; 72 hours): 0.279
MTS assay result, run 7 ([3]; 72 hours): 0.25
MTS assay result, run 8 ([3]; 72 hours): 0.254
MTS assay result, run 9 ([3]; 72 hours): 0.273
